Measurements: patent US20060067981A1, “Contact lens with improved biocidal activity and related methods and materials” (Bausch & Lomb Incorporated, priority 2004, published 2006)
Values joined by “and” are separate entries in the source; they are usually repeats but may differ in a detail not shown here. Equal values may be shown once.

What was measured:
Assay type in all cases: physicochemical
[1] = Uptake of domaphen bromide by lens in tris(hydroxymethyl)aminomethane buffer system
Protocol: Three solutions made according to the formulation of Example 1 were made with a 25 ppm (Solution 4), 50 ppm (Solution 5) and 100 ppm (Solution 6) domaphen bromide concentrations, except the borate buffer system was replaced with an equivalent amount of a tris(hydroxymethyl)aminomethane buffer system and the water amount was adjusted accordingly. The term “equivalent amount” means the amount required to adjust the pH to the desired pH as another buffer. Two 3 ml portions of Solutions 4-6 in solution were placed in six separate vials. A total of six Sureview™ lens (Johnson & Johnson, New Brunswick, N.J.) were placed in the vials—one lens per each vial. The vials remained in the lens for a first 24 hour soaking cycle. After 24 hours, the lenses were removed. The amount of domaphen bromide remaining in each of the 3 ml solutions is measured by ultraviolet visible (UV/VIS) spectrometer analytical method. Inhibition % is calculated to reflect the amount of domaphen bromide that remains in the solution expressed as a percentage of the total amount of domaphen bromide. Inhibition % is recorded in Table 3 corresponding to a soaking time of 24 hours. This completed first test cycle. The lenses removed during the first soaking cycle were placed in six fresh vials containing two 3 ml portions of solutions 4-6 to commence the second 24 hour soaking cycle. Care was taken to make sure that the solution the lens is soaked in during the second cycle is identical to the solution in the first cycle. Thus, each pair of lenses is soaked in identical concentrations of Solutions 4-6. After 24 hours, the lenses are removed. The solutions are tested to determine the concentration domaphen bromide in solution. The inhibition % is calculated and recorded in Table 3 corresponding to 48 hour soak time. The lenses were again soaked for a third and fourth soak cycle. The domaphen bromide inhibition % was recorded after the third and fourth soak-cycle and recorded in Table 3 corresponding to the 72 hour and 96 hour soak times, respectively.

[2] = Uptake of domaphen bromide by lens in phosphate buffer system; settings: % remaining in solution; for Inhibition % in 25 ppm Domiphen Bromide: 25 ppm (Solution 7); for Inhibition % in 50 ppm Domiphen Bromide: 50 ppm (Solution 8); for Inhibition % in 100 ppm Domiphen Bromide: 100 ppm (Solution 9)
Protocol: Three solutions made according to the formulation of Example 1 were made with a 25 ppm (Solution 7), 50 ppm (Solution 8) and 100 ppm (Solution 9) domaphen bromide concentrations, except the borate buffer system was replaced with an equivalent amount of a phosphate buffer system and the amount of water was adjusted accordingly. Two 3 ml portions of Solutions 7-9 in solution were placed in six separate vials. A total of six Sureview™ lens (Johnson & Johnson, New Brunswick, N.J.) were placed in the vials—one lens per each vial. The vials remained in the lens for a first 24 hour soaking cycle. After 24 hours, the lenses were removed. The amount of domaphen bromide remaining in each of the 3 ml solutions is measured by ultraviolet visible (UV/VIS) spectrometer analytical method. Inhibition % is calculated to reflect the amount of domaphen bromide that remains in the solution expressed as a percentage of the total amount of domaphen bromide. Inhibition % is recorded in Table 4 corresponding to a soaking time of 24 hours. This completed the first test cycle. The lenses removed during the first soaking cycle were placed in six fresh vials containing two 3 ml portions of solutions 7-9 to commence the second 24 hour soaking cycle. Care was taken to make sure that the solution the lens is soaked in during the second cycle is identical to the solution in the first cycle. Thus, each pair of lenses is soaked in concentrations of Solutions 7-9 identical to the concentration that the lens was soaked in during the first soak cycle. After 24 hours, the lenses are removed. The solutions are tested to determine the concentration domaphen bromide in solution. The inhibition % is calculated and recorded in Table 4 corresponding to 48 hour soak time. The lenses were again soaked for a third and fourth soak cycle. The domaphen bromide inhibition % was recorded after the third and fourth soak-cycle and recorded in Table 4 corresponding to the 72 hour and 96 hour soak times, respectively.

[3] = Loading time by soaking commercial contact lenses in 3 ml contact cases; settings: most of buffer system
Protocol: The loading time for most of buffer system is about 12-24 hours by soaking commercial contact lenses inside the 3 ml contact cases with a certain concentration of domaphen bromide solution.

[4] = Uptake of domaphen bromide by lens in borate buffer system; settings: for Inhibition % in 25 ppm Domiphen Bromide / Inhibition % in 50 ppm Domiphen Bromide / Inhibition % in 100 ppm Domiphen Bromide: Borate buffer, % remaining in solution; for Inhibition % in 25 ppm Domiphen Bromide: 25 ppm (Solution 13); for Inhibition % in 50 ppm Domiphen Bromide: 50 ppm (Solution 14); for Inhibition % in 100 ppm Domiphen Bromide: 100 ppm (Solution 15)
Protocol: Three solutions made according to the formulation of Example 1 were made with a 25 ppm (Solution 13), 50 ppm (Solution 14) and 100 ppm (Solution 15) domaphen bromide concentrations. Two 3 ml portions of Solutions 13-15 in solution were placed in six separate vials. A total of six Sureview™ lens (Johnson & Johnson, New Brunswick, N.J.) were placed in the vials—one lens per each vial. The vials remained in the lens for a first 24 hour soaking cycle. After 24 hours, the lenses were removed. The amount of domaphen bromide remaining in each of the 3 ml solutions is measured by ultraviolet visible (UV/VIS) spectrometer analytical method. Inhibition % is calculated to reflect the amount of domaphen bromide that remains in the solution expressed as a percentage of the total amount of domaphen bromide. Inhibition % is recorded in Table 6 corresponding to a soaking time of 24 hours. This completed the first test cycle. The lenses removed during the first soaking cycle were placed in six fresh vials containing two 3 ml portions of Solutions 13-15 to commence the second 24 hour soaking cycle. Care was taken to make sure that the solution the lens is soaked in during the second cycle is identical to the solution in the first cycle. Thus, each pair of lenses is soaked in concentrations of Solutions 13-15 identical to the concentration that the lens was soaked in during the first soak cycle. After 24 hours, the lenses are removed. The solutions are tested to determine the concentration domaphen bromide in solution. The inhibition % is calculated and recorded in Table 6 corresponding to 48 hour soak time. The lenses were again soaked for a third and fourth soak cycle. The domaphen bromide inhibition % was recorded after the third and fourth soak cycle and recorded in Table 6 corresponding to the 72 hour and 96 hour soak times, respectively.

[5] = Uptake of domaphen bromide by lens in citrate buffer system
Protocol: Three solutions made according to the formulation of Example 1 were made with a 25 ppm (Solution 10), 50 ppm (Solution 11) and 100 ppm (Solution 12) domaphen bromide concentrations, except the borate buffer system was replaced with an equivalent amount of a citrate buffer system and the water amount was adjusted accordingly. Two 3 ml portions of Solutions 10-12 in solution were placed in six separate vials. A total of six Sureview™ lens (Johnson & Johnson, New Brunswick, N.J.) were placed in the vials—one lens per each vial. The vials remained in the lens for a first 24 hour soaking cycle. After 24 hours, the lenses were removed. The amount of domaphen bromide remaining in each of the 3 ml solutions is measured by ultraviolet visible (UV/VIS) spectrometer analytical method. Inhibition % is calculated to reflect the amount of domaphen bromide that remains in the solution expressed as a percentage of the total amount of domaphen bromide. Inhibition % is recorded in Table 5 corresponding to a soaking time of 24 hours. This completed the first test cycle. The lenses removed during the first soaking cycle were placed in six fresh vials containing two 3 ml portions of solutions 10-12 to commence the second 24 hour soaking cycle. Care was taken to make sure that the solution the lens is soaked in during the second cycle is identical to the solution in the first cycle. Thus, each pair of lenses is soaked in concentrations of Solutions 10-12 identical to the concentration that the lens was soaked in during the first soak cycle. After 24 hours, the lenses are removed. The solutions are tested to determine the concentration domaphen bromide in solution. The inhibition % is calculated and recorded in Table 5 corresponding to 48 hour soak time. The lenses were again soaked for a third and fourth soak cycle. The domaphen bromide inhibition % was recorded after the third and fourth soak cycle and recorded in Table 5 corresponding to the 72 hour and 96 hour soak times, respectively.

## CCCCCCCCCCCC[N+](C)(C)CCOc1ccccc1 [Domiphen Bromide]
[1]; 25 ppm (Solution 4), soaking time 24 hours
  Domiphen bromide remaining in solution (% of total): 78.59% and 75.76%
[1]; 25 ppm (Solution 4), soaking time 48 hours
  Domiphen bromide remaining in solution (% of total): 57.91% and 62.72%
[1]; 25 ppm (Solution 4), soaking time 72 hours
  Domiphen bromide remaining in solution (% of total): 59.19% and 53.50%
[1]; 25 ppm (Solution 4), soaking time 96 hours
  Domiphen bromide remaining in solution (% of total): 55.13% and 52.65%
[1]; 50 ppm (Solution 5), soaking time 24 hours
  Domiphen bromide remaining in solution (% of total): 73.59% and 67.65%
[1]; 50 ppm (Solution 5), soaking time 48 hours
  Domiphen bromide remaining in solution (% of total): 68.18% and 66.35%
[1]; 50 ppm (Solution 5), soaking time 72 hours
  Domiphen bromide remaining in solution (% of total): 58.25% and 56.17%
[1]; 50 ppm (Solution 5), soaking time 96 hours
  Domiphen bromide remaining in solution (% of total): 80.84% and 81.31%
[1]; 100 ppm (Solution 6), soaking time 24 hours
  Domiphen bromide remaining in solution (% of total): 68.39% and 63.58%
[1]; 100 ppm (Solution 6), soaking time 48 hours
  Domiphen bromide remaining in solution (% of total): 65.50% and 63.71%
[1]; 100 ppm (Solution 6), soaking time 72 hours
  Domiphen bromide remaining in solution (% of total): 56.54% and 58.19%
[1]; 100 ppm (Solution 6), soaking time 96 hours
  Domiphen bromide remaining in solution (% of total): 53.91% and 59.25%
[2]; soaking time 24 hours
  Inhibition % in 25 ppm Domiphen Bromide: 43.92% and 51.40%
  Inhibition % in 50 ppm Domiphen Bromide: 47.12% and 49.78%
  Inhibition % in 100 ppm Domiphen Bromide: 48.87% and 47.95%
[2]; soaking time 48 hours
  Inhibition % in 25 ppm Domiphen Bromide: 50.19% and 51.75%
  Inhibition % in 50 ppm Domiphen Bromide: 49.51% and 49.86%
  Inhibition % in 100 ppm Domiphen Bromide: 46.77% and 47.52%
[2]; soaking time 72 hours
  Inhibition % in 25 ppm Domiphen Bromide: 52.34% and 47.54%
  Inhibition % in 50 ppm Domiphen Bromide: 46.67% and 48.35%
  Inhibition % in 100 ppm Domiphen Bromide: 43.55% and 45.54%
[2]; soaking time 96 hours
  Inhibition % in 25 ppm Domiphen Bromide: 41.31% and 34.37%
  Inhibition % in 50 ppm Domiphen Bromide: 34.47% and 37.30%
  Inhibition % in 100 ppm Domiphen Bromide: 34.67% and 37.15%
[3]
  loading time: 12 to 24 h
[4]; soaking time 24 hours
  Inhibition % in 25 ppm Domiphen Bromide: 21.85%
  Inhibition % in 50 ppm Domiphen Bromide: 29.80% and 29.88%
  Inhibition % in 100 ppm Domiphen Bromide: 14.68% and 17.15%
[4]; soaking time 48 hours
  Inhibition % in 25 ppm Domiphen Bromide: 36.68% and 35.57%
  Inhibition % in 50 ppm Domiphen Bromide: 36.31% and 32.62%
  Inhibition % in 100 ppm Domiphen Bromide: 19.08% and 15.10%
[4]; soaking time 72 hours
  Inhibition % in 25 ppm Domiphen Bromide: 33.41% and 33.18%
  Inhibition % in 50 ppm Domiphen Bromide: 31.35% and 37.25%
  Inhibition % in 100 ppm Domiphen Bromide: 12.02% and 18.58%
[4]; soaking time 96 hours
  Inhibition % in 25 ppm Domiphen Bromide: 31.54% and 39.03%
  Inhibition % in 50 ppm Domiphen Bromide: 28.30% and 37.79%
  Inhibition % in 100 ppm Domiphen Bromide: 14.11% and 20.21%
[4]; borate buffer, as high as
  loading percentage (100% minus Inhibition%): 70-80%
[5]; 25 ppm (Solution 10), soaking time 24 hours
  Domiphen bromide remaining in solution (%): 63.20% and 75.66%
[5]; 25 ppm (Solution 10), soaking time 48 hours
  Domiphen bromide remaining in solution (%): 71.57% and 73.25%
[5]; 25 ppm (Solution 10), soaking time 72 hours
  Domiphen bromide remaining in solution (%): 64.34% and 76.59%
[5]; 25 ppm (Solution 10), soaking time 96 hours
  Domiphen bromide remaining in solution (%): 59.17% and 64.89%
[5]; 50 ppm (Solution 11), soaking time 24 hours
  Domiphen bromide remaining in solution (%): 76.51% and 80.02%
[5]; 50 ppm (Solution 11), soaking time 48 hours
  Domiphen bromide remaining in solution (%): 78.39% and 72.39%
[5]; 50 ppm (Solution 11), soaking time 72 hours
  Domiphen bromide remaining in solution (%): 67.91% and 77.42%
[5]; 50 ppm (Solution 11), soaking time 96 hours
  Domiphen bromide remaining in solution (%): 59.28% and 69.87%
[5]; 100 ppm (Solution 12), soaking time 24 hours
  Domiphen bromide remaining in solution (%): 75.59% and 77.95%
[5]; 100 ppm (Solution 12), soaking time 48 hours
  Domiphen bromide remaining in solution (%): 79.63% and 70.90%
[5]; 100 ppm (Solution 12), soaking time 72 hours
  Domiphen bromide remaining in solution (%): 71.04% and 81.39%
[5]; 100 ppm (Solution 12), soaking time 96 hours
  Domiphen bromide remaining in solution (%): 62.97% and 74.47%
